Publication PMC9959676 (Molecules, 2023)
Where two headings read alike, the source gives them in different places.

Tests used:
thoracic aorta segments = assay: Inhibition of phenylephrine-induced contraction on isolated aorta rings; parameters: species or system male Wistar rats; conditions: compounds 10^−4 M in organ bath, phenylephrine 10^−6 M, n = 5; for inhibition at 100 µM: Rattus norvegicus, read-out: %ge inh. of Phenylephrine Cont. (±SEM)
Procedure: (§1) Cervical disruption was used to eliminate male Wistar rats weighing 200 g and 300 g. The thoracic aorta segments (3 mm to 5 mm) were slightly pressed and […]. The tissues were placed in an organ bath filled with 10 mL of Krebs-Henseleit solution and kept at 37 °C. Then 95% oxygen and 5% carbon dioxide were passed through the above-mentioned solution. To record organ responses to phenylephrine, (10^−6 M) (Sigma, St. Louis, MO, USA) simulated contractions; isometric transducers and Gemini recorders (Ugo Basile, Varese, Italy) were assembled. Aortic rings were recon traced with phenylephrine (10^−6 M) and subjected to acetylcholine (10^−6 M) for recording endothelium-dependent relaxations (EDR). All synthesized compounds along with the standard (valsartan) were mixed in DMSO; whereas synthesized derivatives of concentration 10^−4 M were added in an organ bath. In conscious rats, systolic blood pressure was recorded by applying the tail-cuff method. Wistar rats of 200 g to 250 g weight were selected and divided into groups of five individuals. The chemicals were injected intraperitoneally at a dosage of 80 mg/kg body weight. The tail-cuff and a piezoelectric pulse sensor were coupled to a blood pressure analyzer and were positioned at the base of the tail (May 9610, Ankara, Turkey).
(§2) All results were presented as the mean of SEM. (n = 5) and test compounds were employed for statistical significance determination.

urease = urease (Canavalia ensiformis, UniProt P07374); assay: biochemical; type: biochemical; conditions: for folds more urease inhibition than standard Thiourea: relative to Thiourea IC50
Sequence of urease (P07374 whole entry, looked up): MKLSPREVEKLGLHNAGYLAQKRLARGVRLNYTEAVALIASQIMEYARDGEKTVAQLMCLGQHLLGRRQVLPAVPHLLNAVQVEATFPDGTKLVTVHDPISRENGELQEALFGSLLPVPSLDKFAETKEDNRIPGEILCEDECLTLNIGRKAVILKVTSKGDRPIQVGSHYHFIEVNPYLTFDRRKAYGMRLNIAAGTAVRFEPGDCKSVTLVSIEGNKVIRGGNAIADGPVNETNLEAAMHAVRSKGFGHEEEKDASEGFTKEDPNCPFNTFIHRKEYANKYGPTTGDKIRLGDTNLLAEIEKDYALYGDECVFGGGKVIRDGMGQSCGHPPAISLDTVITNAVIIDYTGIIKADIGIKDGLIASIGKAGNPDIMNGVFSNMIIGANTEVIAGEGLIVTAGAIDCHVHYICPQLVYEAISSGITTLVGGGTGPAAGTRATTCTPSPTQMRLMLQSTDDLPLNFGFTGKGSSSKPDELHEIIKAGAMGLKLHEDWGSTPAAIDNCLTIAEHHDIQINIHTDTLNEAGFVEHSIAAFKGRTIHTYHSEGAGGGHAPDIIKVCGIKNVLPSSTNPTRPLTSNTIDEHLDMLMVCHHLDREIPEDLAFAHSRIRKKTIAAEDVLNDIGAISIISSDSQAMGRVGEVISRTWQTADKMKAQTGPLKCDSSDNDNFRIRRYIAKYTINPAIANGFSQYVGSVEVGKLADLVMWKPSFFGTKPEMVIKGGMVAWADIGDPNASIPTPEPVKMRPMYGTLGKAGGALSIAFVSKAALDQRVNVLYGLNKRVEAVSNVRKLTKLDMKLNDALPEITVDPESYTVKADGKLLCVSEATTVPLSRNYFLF
Procedure: The activity performed was an improved procedure of the Berthelot assay. […] For 5 min, the mixture was incubated at 37 °C. Each well in a 96-well plate received 40 µL of urea stock solution (20 mM); incubated for 10 min at 37 °C. Afterwards, 115 µL phenol hypochlorite (45 µL phenol + 70 µL alkali) per well was added. Furthermore, all the contents were incubated for 10 min at 37 °C. Absorbance at 625 nm was measured. Using the provided formula, the % of enzyme-inhibition and IC-50 values were computed Inhibition (%age) = [Control − test/100(control)] where Control = [Total enzyme activity minus inhibitor]. The test is the test compounds’ activity

Escherichia coli = assay: Antibacterial agar-well diffusion; type: cell-based; conditions: sample 100 mg/5 mL in DMSO; ceftriaxone sodium 20 mg/10 mL; 37 °C, 24 h; 6 mm wells
Procedure: (§3) After sterilizing the Mueller Hinton agar medium on plates in an autoclave and allowing it to cool to roughly 45 °C, a 100 µL standard inoculum was aseptically mixed, chilled till 37 °C, and 6 mm wells were formed in the inoculated plates. The volume of 100 μL (100 mg/5 mL in DMSO), ceftriaxone sodium (20 mg/10 mL in DMSO) as a positive control, and pure DMSO as a negative control; 30 μL of the sample solution was incorporated into these wells. These primed plates were incubated at 37 °C for 24 h prior to record inhibitory zones in millimeters.

Bacillus pumilus = assay: Antibacterial agar-well diffusion; type: cell-based; conditions: sample 100 mg/5 mL in DMSO; ceftriaxone sodium 20 mg/10 mL; 37 °C, 24 h; 6 mm wells
Procedure: as §3

Pseudomonas aeruginosa = assay: Antibacterial agar-well diffusion; type: cell-based; conditions: sample 100 mg/5 mL in DMSO; ceftriaxone sodium 20 mg/10 mL; 37 °C, 24 h; 6 mm wells
Procedure: as §3

Staphylococcus aureus = assay: Antibacterial agar-well diffusion; type: cell-based; conditions: sample 100 mg/5 mL in DMSO; ceftriaxone sodium 20 mg/10 mL; 37 °C, 24 h; 6 mm wells
Procedure: as §3

conscious rats = assay: Antihypertensive effect, systolic blood pressure by tail-cuff method in conscious rats; type: in vivo, Wistar rats; conditions: 80 mg/kg intraperitoneally, n = 5, Control 108.28 ± 6.87, DMSO 81.10 ± 3.21
Procedure: as §1, §2

[1] = DPPH free radical scavenging assay; conditions: 1.0 mL sample 0.5 mg/mL + 2 mL DPPH 0.2 mg/mL, 30 min, 517 nm
Procedure: The DPPH assay was carried out to estimate the antioxidant potential among all the compounds [29]. Then, 2 mL (0.2 mg/mL in methyl alcohol) of DPPH was mixed with 1.0 mL (0.5 mg/mL in methyl alcohol) of the sample solution in a test tube. All the reaction tubes were covered with aluminum foil and kept aside for 30 min to complete the reaction. The activity was carried out in a dark room. […] A UV-visible spectrophotometer was employed to observe a reduction in the concentration of free radicals at 517 nm. The absorbance of the control (1.0 mL methanol + 2 mL DPPH solution) was also measured. All samples were evaluated in a triplicate manner, and the mean results were recorded. The standard antioxidant (ascorbic acid) was evaluated and set as a reference/standard. The percentage of inhibition (%) was calculated using the following formula in terms of scavenging activity(S):S (%) = [(Ab − Aa)/Ab] × 100(1) where Ab = Absorbance of control; and Aa = Absorbance of the test sample

[2] = urease, pH 7.0, 37 °C, read-out: IC50 ± SEM

SMILES: CCCCC(=O)N(Cc1ccc(-c2ccccc2-c2nn[nH]n2)cc1)C(C(=O)O)C(C)C (stereo not drawn) [AV0, 2-(N-((2′-(2H-tetrazole-5-yl)-[1,1′-biphenyl]-4yl)-methyl)-pentanamido)-3-methyl butanoic acid, reference compound]
- inhibition at 100 µM (thoracic aorta segments): 65.3 ± 3.6%
- IC50 (urease): 3210 ± 950 nM
- Zone of Inhibition Gram -Ve Bacteria E. coli Mean ± SEM (Escherichia coli): 10.40 ± 0.69 millimeters
- Zone of Inhibition Gram +ve Bacteria B.pumilus Mean ± SEM (Bacillus pumilus): 11.36 ± 0.49 millimeters
- Zone of Inhibition Gram -Ve Bacteria P. aeruginosa Mean ± SEM (Pseudomonas aeruginosa): 12.43 ± 0.67 millimeters
- Zone of Inhibition Gram +ve Bacteria S. aureus Mean ± SEM (Staphylococcus aureus): 12.13 ± 0.72 millimeters
- Mean of Systolic Blood Pressure ± SEM (conscious rats): 82.41 ± 4.32
- %Age Inhibition ± SEM [1]: 64.6± 0.50%

SMILES: CCCCC(=O)N(Cc1ccc(-c2ccccc2-c2nn[nH]n2)cc1)C(C(=O)OC(C(=O)c1ccccc1)c1ccccc1)C(C)C (stereo not drawn) [AV1, 2-oxo-1,2-diphenylethyl 2-(N-((2′-(2H-tetrazol-5yl)-[1,1′-biphenyl]-4-yl)methyl)pentanamido)-3methyl butanoate]
- %ge inh. of Phenylephrine Cont. (±SEM) (thoracic aorta segments): 67.3 ± 4.7%
- IC50 (urease; [2]): 2560 ± 320 nM
- Zone of Inhibition Gram -Ve Bacteria E. coli Mean ± SEM (Escherichia coli): 11.06 ± 0.55 millimeters
- Zone of Inhibition Gram +ve Bacteria B.pumilus Mean ± SEM (Bacillus pumilus): 10.33 ± 0.40 millimeters
- Zone of Inhibition Gram -Ve Bacteria P. aeruginosa Mean ± SEM (Pseudomonas aeruginosa): 10.36 ± 0.28 millimeters
- Zone of Inhibition Gram +ve Bacteria S. aureus Mean ± SEM (Staphylococcus aureus): 10.83 ± 0.31 millimeters
- Mean of Systolic Blood Pressure ± SEM (conscious rats): 81.78 ± 3.87
- %Age Inhibition ± SEM [1]: 73.9 ± 0.49%

SMILES: CCCCC(=O)N(Cc1ccc(-c2ccccc2-c2nn[nH]n2)cc1)C(C(=O)Oc1ccc(C=O)cc1OC)C(C)C (stereo not drawn) [AV2, 4-formyl-2-methoxyphenyl 2(N-((2′-(2H-tetrazole-5-yl)-[1,1′-biphenyl]-4yl)methyl)pentanamido)-3-methyl butanoate]
- %ge inh. of Phenylephrine Cont. (±SEM) (thoracic aorta segments): 76.4 ± 6.8%
- folds more urease inhibition than standard Thiourea (urease): 4 folds
- IC50 (urease; [2]): 280 ± 150 nM
- Zone of Inhibition Gram -Ve Bacteria E. coli Mean ± SEM (Escherichia coli): 11.90 ± 0.26 millimeters
- Zone of Inhibition Gram +ve Bacteria B.pumilus Mean ± SEM (Bacillus pumilus): 12.26 ± 0.69 millimeters
- Zone of Inhibition Gram -Ve Bacteria P. aeruginosa Mean ± SEM (Pseudomonas aeruginosa): 09.33 ± 0.58 millimeters
- Zone of Inhibition Gram +ve Bacteria S. aureus Mean ± SEM (Staphylococcus aureus): 12.90 ± 0.81 millimeters
- %Age Inhibition ± SEM [1]: 96.0 ± 0.49%

SMILES: CCCCC(=O)N(Cc1ccc(-c2ccccc2-c2nnn[nH]2)cc1)C(C(=O)Oc1ccc(N)cc1)C(C)C (stereo not drawn) [AV4, 4-aminophenyl 2-(N-((2′-(2H-tetrazol-5yl) -[1,1′-biphenyl]-4yl)methyl)pentanamido)-3methyl butanoate]
- inhibition at 100 µM (thoracic aorta segments): 69.4 ± 5.4%
- IC50 (urease): 3190 ± 950 nM
- Zone of Inhibition Gram -Ve Bacteria E. coli Mean ± SEM (Escherichia coli): 10.63 ± 0.40 millimeters
- Zone of Inhibition Gram +ve Bacteria B.pumilus Mean ± SEM (Bacillus pumilus): 10.46 ± 0.67 millimeters
- Zone of Inhibition Gram -Ve Bacteria P. aeruginosa Mean ± SEM (Pseudomonas aeruginosa): 10.31 ± 0.47 millimeters
- Zone of Inhibition Gram +ve Bacteria S. aureus Mean ± SEM (Staphylococcus aureus): 10.16 ± 0.17 millimeters
- Mean of Systolic Blood Pressure ± SEM (conscious rats): 79.56 ± 2.78

SMILES: CCCCC(=O)N(Cc1ccc(-c2ccccc2-c2nn[nH]n2)cc1)C(C(=O)Oc1ccc(Cl)cc1Cl)C(C)C (stereo not drawn) [AV5, 2,4-dichlorophenyl 2-(N-((2′-(2H-tetrazol-5yl)-[1,1′-biphenyl]-4 yl)methyl)pentanamido)-3methyl butanoate]
- %ge inh. of Phenylephrine Cont. (±SEM) (thoracic aorta segments): 66.2 ± 4.2%
- folds more urease inhibition than standard Thiourea (urease): 3 folds
- IC50 (urease; [2]): 1290 ± 120 nM
- Zone of Inhibition Gram -Ve Bacteria E. coli Mean ± SEM (Escherichia coli): 11.36 ± 0.63 millimeters
- Zone of Inhibition Gram +ve Bacteria B.pumilus Mean ± SEM (Bacillus pumilus): 11.23 ± 0.61 millimeters
- Zone of Inhibition Gram -Ve Bacteria P. aeruginosa Mean ± SEM (Pseudomonas aeruginosa): 09.36 ± 0.85 millimeters
- Zone of Inhibition Gram +ve Bacteria S. aureus Mean ± SEM (Staphylococcus aureus): 13.50 ± 0.50 millimeters
- Mean of Systolic Blood Pressure ± SEM (conscious rats): 81.92 ± 5.21
- %Age Inhibition ± SEM [1]: 73.1 ± 0.49%

SMILES: CCCCC(=O)N(Cc1ccc(-c2ccccc2-c2nn[nH]n2)cc1)C(C(=O)Oc1ccc(CC(N)C(=O)O)cc1)C(C)C (stereo not drawn) [AV7, 3-(4-((2-(N-((2′-(2H-tetrazol-5yl)-[1,1′-biphenyl]-4 yl)methyl)pentanamido)-3methylbutanoyl)oxy)phenyl)-2amino-propanoic acid]
- inhibition at 100 µM (thoracic aorta segments): 62.4 ± 2.7%
- IC50 (urease): 8590 ± 1120 nM
- Zone of Inhibition Gram -Ve Bacteria E. coli Mean ± SEM (Escherichia coli): 10.96 ± 0.18 millimeters
- Zone of Inhibition Gram +ve Bacteria B.pumilus Mean ± SEM (Bacillus pumilus): 11.13 ± 0.80 millimeters
- Zone of Inhibition Gram -Ve Bacteria P. aeruginosa Mean ± SEM (Pseudomonas aeruginosa): 10.76 ± 0.53 millimeters
- Zone of Inhibition Gram +ve Bacteria S. aureus Mean ± SEM (Staphylococcus aureus): 12.10 ± 0.37 millimeters
- Mean of Systolic Blood Pressure ± SEM (conscious rats): 85.61 ± 3.32

SMILES: CCCCC(=O)N(Cc1ccc(-c2ccccc2-c2nn[nH]n2)cc1)C(C(=O)Oc1cccc2ccccc12)C(C)C (stereo not drawn) [AV9, naphthalen-1-yl 2-(N-((2′-(2H-tetrazol-5-yl)-[1,1′-biphenyl]-4 yl)methyl)pentanamido)-3methyl butanoate]
- %ge inh. of Phenylephrine Cont. (±SEM) (thoracic aorta segments): 68.3 ± 4.7%
- IC50 (urease; [2]): 2260 ± 1040 nM
- Zone of Inhibition Gram -Ve Bacteria E. coli Mean ± SEM (Escherichia coli): 09.73 ± 0.23 millimeters
- Zone of Inhibition Gram +ve Bacteria B.pumilus Mean ± SEM (Bacillus pumilus): 12.76 ± 0.84 millimeters
- Zone of Inhibition Gram -Ve Bacteria P. aeruginosa Mean ± SEM (Pseudomonas aeruginosa): 10.90 ± 0.40 millimeters
- Zone of Inhibition Gram +ve Bacteria S. aureus Mean ± SEM (Staphylococcus aureus): 14.40 ± 0.37 millimeters
- %Age Inhibition ± SEM [1]: 83.8 ± 0.64%

SMILES: O=C1O[C@H]([C@@H](O)CO)C(O)=C1O [Ascorbic acid, reference compound]
- %Age Inhibition ± SEM [1]: 96.4 ± 0.52%

SMILES: CO/N=C(\C(=O)N[C@@H]1C(=O)N2C(C(=O)O)=C(CSc3nc(=O)c(=O)[nH]n3C)CS[C@H]12)c1csc(N)n1 [Ceftriaxone, ceftriaxone sodium, reference compound]
- Zone of Inhibition Gram -Ve Bacteria E. coli Mean ± SEM (Escherichia coli): 21.90 ± 0.18 millimeters
- Zone of Inhibition Gram +ve Bacteria B.pumilus Mean ± SEM (Bacillus pumilus): 22.13 ± 0.14 millimeters
- Zone of Inhibition Gram -Ve Bacteria P. aeruginosa Mean ± SEM (Pseudomonas aeruginosa): 23.33 ± 0.43 millimeters
- Zone of Inhibition Gram +ve Bacteria S. aureus Mean ± SEM (Staphylococcus aureus): 24.60 ± 0.51 millimeters

SMILES: NC(N)=S [Standard Thiourea, Thiourea, reference compound]
- IC50 (urease; [2]): 4240 ± 130 nM
